Like-named read-outs stand apart in the source and are kept apart here.

The target of this assay is T1, human α7 nicotinic acetylcholine receptor (HEK cell line stably expressing human RIC-3 and human α7) (Homo sapiens, UniProt P36544).
T1 construct: host or cells: HEK cell line (PrecisION hnAChR α7/RIC-3)
Briefly: Automated patch-clamp electrophysiology functional assay (Assay A), IonFlux HT, whole-cell population patch. In kind it is cell-based. As to the method: The α7 nAChR positive allosteric modulator (PAM) activity of the present compounds may be tested using assays known in the art. […] The assay was performed using the IonFlux HT in a whole-cell, population patch configuration. See Golden et al. Assay Drug Dev. Technol. […] The compounds were assessed for their ability to modulate the function of the human 7 nAChR stably expressed in a HEK cell line both in the presence, and in the absence of the natural 7 agonist acetylcholine. By performing a series of such measurements at different concentrations, the effective concentration of the 7 nAChR PAMs (EC50) was determined. See Spencer et al. Assay Drug Dev. Technol.
Direct activation of α7 (agonism), and potentiation of acetylcholine-evoked 7 currents was determined as follows:
Automated patch-clamp electrophysiology was performed using the IonFlux HT (Fluxion Biosciences Inc., San Francisco, Calif.) in the whole-cell, population patch configuration. Test compounds were assessed for their ability to modulate the function of the α7 nicotinic acetylcholine receptor both in the presence, and in the absence of the natural α7 agonist acetylcholine. […] Immediately prior to assay, cells were detached by first aspirating growth media, rinsing with Dulbecco's phosphate buffered saline, and then adding 10 mL of Accutase (Innovative Cell Technologies, San Diego, Calif.) to the flask and then incubating at 37° C. for 5 minutes. Detached cells were then recovered by the addition of 40 mL of CHO-serum-free media supplemented with 25 mM HEPES, and rocked gently in a 50 mL conical tube for 20 minutes prior to patch-clamp assay. After recovery, cells were pelleted by centrifugation at 1,000 RPM for 1 minute in a compact bench top centrifuge; recovery media was aspirated and cells were resuspended in external recording solution (150 mM NaCl, 5 mM KCl, 2 mM CaCl2), 1 mM MgCl2, 10 mM HEPES, 12 mM dextrose) to a density of 5.0×10^6 cells/mL. The cell suspension was added to the cell inlet wells on an IonFlux HT population patch plate which had previously been rinsed and primed with deionized H2O. Test compounds were serially diluted in DMSO and then resuspended to the final test concentration in external recording solution, with, or without 40 μM acetylcholine added to the external recording solution; test compounds were then transferred to the IonFlux HT population patch plate. Internal recording solution (110 mM TrisPO4, 28 mM TrisBase, 0.1 mM CaCl2, 2 mM MgCl2, 11 mM EGTA, 4 mM MgATP) was added to the internal recording solution inlet wells on the IonFlux HT patch plate previously loaded with cells and test compounds, and the plate loaded into the IonFlux HT instrument. A protocol was executed on the IonFlux HT to trap the cells, break into the cells, and establish the whole-cell recording configuration; cells were voltage-clamped at a holding potential of −60 mV for the duration of the experiment, all experiments were conducted at room temperature, and the IonFlux HT injection pressure was 8 psi for solution applications. Upon establishing the whole-cell configuration, external recording solution was perfused into the recording chambers for 120 seconds and then 40 μM acetylcholine was applied for 1 second and immediately washed off with external recording solution for 60 seconds. The 40 μM acetylcholine-evoked α7 current served as the current response to which subsequent test compound effects, in the presence, or in the absence of 40 μM acetylcholine would be quantified relative to. Next, test compounds were evaluated at multiple concentrations for their ability to induce, or modulate 7 current responses; three concentrations of test compound were evaluated in ascending dose fashion per recording.
For orientation: The patch-clamp technique gives a direct electrical read-out from membranes.

Where [1] appears, read: HEK cells expressing human α7/RIC-3, test compound with or without 40 μM acetylcholine, holding potential −60 mV, room temperature, read-out: α7 nAChR Potency.
[2] abbreviates: automated patch-clamp electrophysiology functional assay (Assay A), read-out: α7 nAChR EC50.

T1 sequence (P36544 23-502): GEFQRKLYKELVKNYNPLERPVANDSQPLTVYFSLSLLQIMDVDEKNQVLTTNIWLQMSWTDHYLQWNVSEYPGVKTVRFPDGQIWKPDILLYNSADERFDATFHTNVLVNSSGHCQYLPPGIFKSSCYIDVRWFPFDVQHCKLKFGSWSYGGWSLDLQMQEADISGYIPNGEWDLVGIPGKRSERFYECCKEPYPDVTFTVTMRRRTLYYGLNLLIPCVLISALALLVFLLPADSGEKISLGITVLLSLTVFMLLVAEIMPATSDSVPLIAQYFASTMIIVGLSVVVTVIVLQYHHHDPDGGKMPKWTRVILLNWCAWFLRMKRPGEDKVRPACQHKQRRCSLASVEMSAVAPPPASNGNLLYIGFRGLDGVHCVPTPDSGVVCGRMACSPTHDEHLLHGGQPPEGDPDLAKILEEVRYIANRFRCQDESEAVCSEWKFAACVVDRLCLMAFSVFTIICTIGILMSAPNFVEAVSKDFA

With `NS(=O)(=O)N1CCC2(CC1)[C@H](c1nnc(-c3ccnn3C3CC3)o1)C2(F)F` [Example 16, (2R)-2-[5-(1-Cyclopropyl-1H-pyrazol-5-yl)-1,3,4-oxadiazol-2-yl]-1,1-difluoro-6-azaspiro[2.5]octane-6-sulfonamide], the EC50 runs as follows: under setting [1], 100 to 500 nM; under setting [2], 450 nM.
As for `NS(=O)(=O)N1CCC2(CC1)[C@H](c1nnc(-c3ccnn3C3CC3)s1)C2(F)F` [Example 17, (2S)-2-[5-(1-Cyclopropyl-1H-pyrazol-5-yl)-1,3,4-thiadiazol-2-yl]-1,1-difluoro-6-azaspiro[2.5]octane-6-sulfonamide], the EC50 was 500 to 5000 nM under setting [1] and 550 nM under setting [2].
In the same order, the values of `NS(=O)(=O)N1CCC2(CC1)[C@H](c1noc(-c3cnn4c3CSCC4)n1)C2(F)F` [Example 18, (2R)-2-[5-(6,7-Dihydro-4H-pyrazolo[5,1-c][1,4]thiazin-3-yl)-1,2,4-oxadiazol-3-yl]-1,1-difluoro-6-azaspiro[2.5]octane-6-sulfonamide] are 500 to 5000 nM and 800 nM.
For `Cn1cc(-c2nc([C@@H]3C(F)(F)C34CCN(S(N)(=O)=O)CC4)no2)c(C(F)(F)F)n1` [Example 19, (2R)-1,1-Difluoro-2-{5-[1-methyl-3-(trifluoromethyl)-1H-pyrazol-4-yl]-1,2,4-oxadiazol-3-yl}-6-azaspiro[2.5]octane-6-sulfonamide], in that order: 100 to 500 nM and 240 nM.
For `Cn1nc2c(c1-c1nc([C@@H]3C(F)(F)C34CCN(S(N)(=O)=O)CC4)no1)CCC2` [Example 20, (2R)-1,1-Difluoro-2-[5-(2-methyl-2,4,5,6-tetrahydrocyclopenta[c]pyrazol-3-yl)-1,2,4-oxadiazol-3-yl]-6-azaspiro[2.5]octane-6-sulfonamide], in that order: under 100 nM and 98 nM.
As to `CS(=O)(=O)N1CCC2(CC1)C(c1nc(-c3ccc(F)cc3C(F)(F)F)no1)C2(F)F` (stereo not shown) [Example 21, 1,1-Difluoro-2-{3-[4-fluoro-2-(trifluoromethyl)phenyl]-1,2,4-oxadiazol-5-yl}-6-(methylsulfonyl)-6-azaspiro[2.5]octane], the EC50 under setting [1] is 500 to 5000 nM and the EC50 under setting [2] amounted to 670 nM.
In the same order, the values of `Cc1nn(C)c(-c2nc([C@@H]3C(F)(F)C34CCN(S(N)(=O)=O)CC4)no2)c1C` [Example 22, (2R)-1,1-Difluoro-2-[5-(1,3,4-trimethyl-1H-pyrazol-5-yl)-1,2,4-oxadiazol-3-yl]-6-azaspiro[2.5]octane-6-sulfonamide] are under 100 nM and 99 nM.
In the same order, the values of `NS(=O)(=O)N1CCC2(CC1)C[C@H]2c1nc(-c2conc2C2CC2)co1` [Example 23, (1R)-1-[4-(3-Cyclopropylisoxazol-4-yl)-1,3-oxazol-2-yl]-6-azaspiro[2.5]octane-6-sulfonamide] are 500 to 5000 nM and 1400 nM.
Regarding `NS(=O)(=O)N1CCC2(CC1)[C@H](c1coc(-c3ccc(F)cc3C(F)(F)F)n1)C2(F)F` [Example 24, (2R)-1,1-Difluoro-2-{2-[4-fluoro-2-(trifluoromethyl)phenyl]-1,3-oxazol-4-yl}-6-azaspiro[2.5]octane-6-sulfonamide], the EC50 under setting [1] is under 100 nM and the EC50 under setting [2] turned out to be 90 nM.
In the same order, the values of `Cc1cn(C2CC2)nc1-c1nc([C@@H]2C(F)(F)C23CCN(S(N)(=O)=O)CC3)no1` [Example 25, (2R)-2-[5-(1-Cyclopropyl-4-methyl-1H-pyrazol-3-yl)-1,2,4-oxadiazol-3-yl]-1,1-difluoro-6-azaspiro[2.5]octane-6-sulfonamide] are 100 to 500 nM and 210 nM.
In the same order, the values of `CCn1nc(-c2nc([C@@H]3CC34CCN(S(N)(=O)=O)CC4)no2)cc1C` [Example 27, (1R)-1-[5-(1-Ethyl-5-methyl-TH-pyrazol-3-yl)-1,2,4-oxadiazol-3-yl]-6-azaspiro[2.5]octane-6-sulfonamide] are 500 to 5000 nM and 4000 nM.
For `Cc1onc(C2CC2)c1-c1cnc([C@@H]2CC23CCN(S(N)(=O)=O)CC3)o1` [Example 28, (1R)-1-[5-(3-Cyclopropyl-5-methylisoxazol-4-yl)-1,3-oxazol-2-yl]-6-azaspiro[2.5]octane-6-sulfonamide], in that order: 100 to 500 nM and 120 nM.
As to `NS(=O)(=O)N1CCC2(CC1)[C@H](c1noc(-c3cc(C(F)(F)F)nn3C3CC3)n1)C2(F)F` [Example 29, (2R)-2-{5-[1-Cyclopropyl-3-(trifluoromethyl)-1H-pyrazol-5-yl]-1,2,4-oxadiazol-3-yl}-1,1-difluoro-6-azaspiro[2.5]octane-6-sulfonamide], the EC50 under setting [1] was 100 to 500 nM and the EC50 under setting [2] is 170 nM.
In the same order, the values of `Cc1ccc(C2CC2)c(-c2nc([C@@H]3C(F)(F)C34CCN(S(N)(=O)=O)CC4)no2)c1` [Example 30, (2R)-2-[5-(2-Cyclopropyl-5-methylphenyl)-1,2,4-oxadiazol-3-yl]-1,1-difluoro-6-azaspiro[2.5]octane-6-sulfonamide] are under 100 nM and 2.4 nM.
In the case of `NS(=O)(=O)N1CCC2(CC1)[C@H](c1coc(-c3conc3C3CC3)n1)C2(F)F` [Example 31, (2R)-2-[2-(3-Cyclopropylisoxazol-4-yl)-1,3-oxazol-4-yl]-1,1-difluoro-6-azaspiro[2.5]octane-6-sulfonamide], the EC50 is, setting by setting: under setting [1], 100 to 500 nM; under setting [2], 130 nM.
In the same order, the values of `Cc1ccccc1-c1nc([C@@H]2CC23CCN(S(N)(=O)=O)CC3)no1` [Example 33, (1R)-1-[5-(2-Methylphenyl)-1,2,4-oxadiazol-3-yl]-6-azaspiro[2.5]octane-6-sulfonamide] are 100 to 500 nM and 390 nM.
For `Cc1ccc(C)c(-c2nc([C@@H]3C(F)(F)C34CCN(S(N)(=O)=O)CC4)no2)c1` [Example 34, (2R)-2-[5-(2,5-Dimethylphenyl)-1,2,4-oxadiazol-3-yl]-1,1-difluoro-6-azaspiro[2.5]octane-6-sulfonamide], in that order: under 100 nM and 4.5 nM.
For `NS(=O)(=O)N1CCC2(CC1)[C@H](c1coc(-c3ccnc(OC(F)F)c3)n1)C2(F)F` [Example 35, (2R)-2-{2-[2-(Difluoromethoxy)pyridin-4-yl]-1,3-oxazol-4-yl}-1,1-difluoro-6-azaspiro[2.5]octane-6-sulfonamide], the EC50 is 100 to 500 nM under setting [1] and 150 nM under setting [2].
As to `COc1ccc(Cl)cc1-c1noc([C@@H]2CC23CCN(S(N)(=O)=O)CC3)n1` [Example A1], the EC50 under setting [1] lay in the range of 100 to 500 nM and the EC50 under setting [2] was 490 nM.
Take `NS(=O)(=O)N1CCC2(CC1)C(c1nc(-c3ccccc3)no1)C2(F)F` (stereo not shown) [Example A2]: the EC50 is 100 to 500 nM under setting [1] and 320 nM under setting [2].
In the same order, the values of `NS(=O)(=O)N1CCC2(CC1)C[C@H]2c1nc(-c2cc(F)ccc2C(F)(F)F)no1` [Example A4] are 500 to 5000 nM and 850 nM.
For `NS(=O)(=O)N1CCC2(CC1)CC2c1nc(-c2conc2C2CC2)no1` (stereo not shown) [Example C4], in that order: 500 to 5000 nM and 1100 nM.
For `Cc1onc(C2CC2)c1-c1noc(C2C(F)(F)C23CCN(S(N)(=O)=O)CC3)n1` (stereo not shown) [Example C5], in that order: under 100 nM and 11 nM.
On to `NS(=O)(=O)N1CCC2(CC1)C(c1nc(C3CCCCC3)no1)C2(F)F` (stereo not shown) [Example C6], for which the EC50 is 100 to 500 nM under setting [1] and 420 nM under setting [2].
For `Cc1ncccc1-c1noc(C2C(F)(F)C23CCN(S(N)(=O)=O)CC3)n1` (stereo not shown) [Example C7], in that order: 500 to 5000 nM and 1100 nM.
As to `NS(=O)(=O)N1CCC2(CC1)C(c1nc(-c3ccnc(C(F)(F)F)c3)no1)C2(F)F` (stereo not shown) [Example C8], the EC50 is, setting by setting: under setting [1], 500 to 5000 nM; under setting [2], 1300 nM.

(Values after patent US11332463B2, “Spiropiperidine allosteric modulators of nicotinic acetylcholine receptors” (Merck Sharp & Dohme Corp., priority 2018, dated 2022).)
